Results: patent publication US20120101015A1, “ANTI-WEAR AGENTS WITH A REDUCED NEUROTOXICITY” (priority 2009, published 2012)
Like-named read-outs stand apart in the source and are kept apart here.

Key:
[1] = target: human butyrylcholine esterase (Homo sapiens, UniProt P06276); type: biochemical
Procedure: A more sensitive assay was used in order to discriminate alkylphenyl diphenyl phosphates, di-alkylphenyl phenyl phosphates and tri-alkylphenyl phosphates based on their potential ability to inhibit BChE.
The assay was essentially the same as that described in Example 2 except that the triaryl phosphate solution to be tested was prepared in pure ethanol instead of in sodium phosphate buffer.
Some experiments were performed with rat liver microsomes (RLM) because human liver microsomes (HLM) were not available in sufficient quantity. However, human butyrylcholine esterase was used in all assays.
Briefly, base stock triarylphosphate solutions were prepared by dissolution or dilution of a triarylphosphate of interest in ethanol at 2.5 mg/ml. Dilution solutions were then prepared in buffer containing 10% ethanol. 7.5 μl of each dilution solution comprising a triarylphosphate was added to a liver microsome mix in phosphate buffer to give a solution comprising microsomes, NADPH (1 mM) and triarylphosphate at a concentration ranging from 0.20 to 25 μg/ml. This pre-incubation was done at room temperature for 20-25 minutes. After incubation, 7.5 μl of BChE solution (at 9.75 μg/ml in phosphate buffer) was added to the resulting microsome-containing solution. The resulting solution was incubated for 20-25 minutes. The BChE residual activity was then measured as described in Example 2 hereabove.
For each triarylphosphates, the percentages of residual BChE activity were determined for triarylphosphate final concentrations ranging from 0.3 μg/ml to 20 μg/ml.
The Durad 125® combination was used as positive control. For reminder, Durad 125 consists in a mixture of meta and para isomers of tricresyl phosphate.

[2] = target: human butyrylcholinesterase (BChE) (Homo sapiens, UniProt P06276); experiment: In vitro BChE activity assay after incubation with human liver microsomes and NADPH (Example 2, stock in phosphate buffer); type: biochemical; settings: for BChE residual activity percentage: triaryl phosphate 25 μg/ml, BChE reference activity 3.76 nmol DTNB/min
Procedure: As part of the study, the neurotoxicity of triaryl phosphates and combinations thereof was evaluated through an in vitro test using a model enzyme of esterase: the human butyrylcholinesterase. The human butyrylcholinesterase (BChE), or plasma cholinesterase, has an enzyme activity profile close to that of human acetylcholinesterase.
In this assay, triarylphosphates of interest are first incubated with human liver microsomes in the presence of NADPH to enable the production of potential metabolites. The incubation with microsomes is then followed by incubation with purified human BChE in the context of a micro-BChE activity assay.
This in vitro assay thus reproduces the in vivo metabolization of triaryl phosphates in the liver and enables to evaluate the anti-esterase activity of the resulting metabolites.
Six individual preparations of the same amount were collected to form a homogeneous pool representing the variability amongst the individuals, using a Potter-Elvehem Glass-Teflon homogenizer, with a 5 run-procedure in ice.
Mixture samples of 1.7 ml were collected in polypropylene centrifuge tubes, and thereafter stored at −80° C. The measured liver microsome content was 7.83 mg/ml.
A 250 μg/ml triaryl phosphate solution was prepared in a 50 mM sodium phosphate buffer at pH 7.4 by vigorously stirring in a vortex mixer for one minute. […]
The BChE activity is then measured according to the protocol defined by Ellman and al, (Ellman and al., 1961, Biochem Pharmacol, 7: 88-95), modified for use in micro-titration format. […]
Monitoring the TNB formation is effected by measuring the absorbance at 405 nm for 4 minutes at 23° C. with a microplate optical reader such as SpectraMax Plus spectrophotometer.
The BChE residual activity in the presence of triaryl phosphate is then expressed depending on the BChE reference activity, that is to say depending on the BChE activity measured in the presence of liver microsomes and NADPH and in the absence of triaryl phosphate (reference experiment).

[3] = system: hens; settings: oral, Weiner and Jortner 1999; cited from earlier work
[4] = target: plasma BChE (Rattus norvegicus, UniProt Q9JKC1); settings: oral dose of 240 mg/kg, 24 hours post-dosing
Procedure: The activity of BChE in the plasma of rats was determined following oral administration of 240, 120, 60 and 10 mg/kg of body weight of Durad 125 or tri-para-tert-butyl phosphate at 6 hours postdosing and 24 hours postdosing. Each dose solution was prepared in a corn oil vehicle and administered by gavage. Control animals were administered an appropriate amount of corn oil (witout any triarylphosphate compounds). All animals were fasted for approximately 16 h prior to administration of the dose containing Durad 125, tri-p-t-butylphenyl phosphate or only corn oil.
Three to six animals per time point and per dose were humanely anesthetized, and sacrificed. For each animal, the blood was collected and the plasma was separated by centrifugation. The plasma samples were then stored at −80° C. until performing the BChE activity assay.
The BChE activity assay was performed as previously described according to Ellman et al (Biochem. Pharmacol. 7, 88-95).

[5] = rat liver microsomes (RLM), concentrations 1 μg/ml to 20 μg/ml
[6] = human liver microsomes (HLM), concentrations 1 μg/ml to 20 μg/ml
[7] = human liver microsomes, up to 20 μg/ml (FIG. 3a)

Chain of human butyrylcholinesterase (BChE) (P06276 29-602): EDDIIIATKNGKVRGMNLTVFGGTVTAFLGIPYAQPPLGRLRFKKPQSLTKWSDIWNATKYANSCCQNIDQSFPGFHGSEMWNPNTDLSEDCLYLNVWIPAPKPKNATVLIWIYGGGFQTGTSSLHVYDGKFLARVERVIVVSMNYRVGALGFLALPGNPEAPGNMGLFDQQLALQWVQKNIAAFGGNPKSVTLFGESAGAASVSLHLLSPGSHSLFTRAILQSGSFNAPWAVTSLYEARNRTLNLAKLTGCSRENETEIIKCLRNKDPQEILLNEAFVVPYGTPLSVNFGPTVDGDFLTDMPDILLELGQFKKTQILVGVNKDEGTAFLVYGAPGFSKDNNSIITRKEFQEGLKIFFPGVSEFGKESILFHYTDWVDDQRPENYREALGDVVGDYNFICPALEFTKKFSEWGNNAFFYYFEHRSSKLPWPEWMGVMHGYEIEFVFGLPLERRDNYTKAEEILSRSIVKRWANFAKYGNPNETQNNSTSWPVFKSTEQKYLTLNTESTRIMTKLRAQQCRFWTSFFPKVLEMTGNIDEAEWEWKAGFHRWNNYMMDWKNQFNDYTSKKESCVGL
Chain of human butyrylcholine esterase (P06276 29-602): as above
Chain of plasma BChE (Q9JKC1 24-597): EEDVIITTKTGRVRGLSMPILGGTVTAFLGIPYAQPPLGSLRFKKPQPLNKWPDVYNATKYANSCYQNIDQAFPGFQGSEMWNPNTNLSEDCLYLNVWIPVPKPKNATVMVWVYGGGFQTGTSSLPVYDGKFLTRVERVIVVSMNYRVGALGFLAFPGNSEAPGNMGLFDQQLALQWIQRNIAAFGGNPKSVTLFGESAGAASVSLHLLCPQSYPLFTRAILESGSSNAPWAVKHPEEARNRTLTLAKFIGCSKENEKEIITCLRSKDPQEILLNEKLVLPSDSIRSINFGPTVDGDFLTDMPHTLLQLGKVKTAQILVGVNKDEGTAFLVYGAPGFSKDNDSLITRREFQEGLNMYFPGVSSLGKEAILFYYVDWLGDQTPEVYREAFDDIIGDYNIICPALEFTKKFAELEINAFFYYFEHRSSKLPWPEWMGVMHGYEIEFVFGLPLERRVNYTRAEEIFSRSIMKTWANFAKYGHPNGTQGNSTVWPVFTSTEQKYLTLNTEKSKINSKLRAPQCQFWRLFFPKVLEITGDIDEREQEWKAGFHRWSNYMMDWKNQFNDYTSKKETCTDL

## 1-methylnonylphenyl diphenyl phosphate
[1]; [5]
  Minimal BChE residual activity: 5.2%

## Cc1ccccc1OP(=O)(Oc1ccccc1C)Oc1ccccc1C [C6, tri-ortho-cresyl phosphate]
[2]
  BChE residual activity percentage: very low
[3]
  neurotoxicity: highly neurotoxicity

## O=P(Oc1ccccc1)(Oc1ccccc1)Oc1ccccc1 [C7, tri-phenylphosphate]
[2]
  BChE inhibiting potential after incubation: non negligible inhibiting potential
  BChE residual activity percentage: 44.8 +/− 10.4%
[3]
  neurotoxicity: non neurotoxic or poorly neurotoxic

## CC(C)(C)c1ccc(OP(=O)(Oc2ccc(C(C)(C)C)cc2)Oc2ccc(C(C)(C)C)cc2)cc1 [P1, Tri-para-tert-butylphenyl phosphate]
[1]; [6]
  Minimal BChE residual activity: 90%
[1]; [7]
  inhibition of BChE: did not induce a significant inhibition of BChE
[1]; [5]
  Minimal BChE residual activity: >100%
[4]
  inhibition of plasma BChE: does not induce BChE inhibition

## CC(C)c1ccc(OP(=O)(Oc2ccc(C(C)C)cc2)Oc2ccc(C(C)C)cc2)cc1 [P2, Tri-para-isopropylphenyl phosphate]
[1]
  Minimal BChE residual activity: >100%
  inhibition of BChE: did not inhibit BChE

## CC(C)c1ccccc1OP(=O)(Oc1ccccc1C(C)C)Oc1ccccc1C(C)C [P3, Tri-ortho-isopropylphenyl phosphate]
[1]
  Minimal BChE residual activity: 72.6%

## CC(C)c1ccc(OP(=O)(Oc2ccccc2)Oc2ccc(C(C)C)cc2)cc1 [di-para-isopropylphenyl phenylphosphate]
[1]; [5]
  Minimal BChE residual activity: 76.5%

## CC(C)(C)c1ccc(OP(=O)(Oc2ccccc2)Oc2ccc(C(C)(C)C)cc2)cc1 [di-para-tert-butylphenyl phenylphosphate]
[1]; [6]
  Minimal BChE residual activity: 85.2%
[1]; [7]
  inhibition of BChE: did not induce a significant inhibition of BChE

## CC(C)(C)c1ccc(OP(=O)(Oc2ccccc2)Oc2ccccc2)cc1 [para-tert-butylphenyl diphenyl phosphate]
[1]; [6]
  Minimal BChE residual activity: 44.9%
[1]; human liver microsomes, concentrations higher than 5 μg/ml (FIG. 3a)
  inhibition of BChE: at least 40%

## CC(C)(C)c1cccc(OP(=O)(Oc2cccc(C(C)(C)C)c2)Oc2cccc(C(C)(C)C)c2)c1 [tri-meta-tert-butylphenyl phosphate]
[1]
  Minimal BChE residual activity: >100%

## CC(C)(C)c1ccccc1OP(=O)(Oc1ccccc1C(C)(C)C)Oc1ccccc1C(C)(C)C [tri-ortho-tert-butylphenyl phosphate]
[1]
  Minimal BChE residual activity: >100%

## dodecylphenyl diphenyl phosphate
[1]; [5]
  Minimal BChE residual activity: 16%
